From patent US5563142A, “Diaromatic substituted compounds as anti-HIV-1 agents” (The Upjohn Company, priority 1994, dated 1996)

The compounds below were run against T1, viral reverse transcriptase (Human immunodeficiency virus type 1 group M subtype B, UniProt P04585) (assay: Viral reverse transcriptase inhibition, cell free assay). Conditions: 100 μM; poly rC or poly rG template.
T1 construct: Viral reverse transcriptase is found in extracts from bacterial clones; made in house; host or cells: Escherichia coli (extracts of bacterial clones, by the procedure of Larder et al., EMBO J. 6:3133-3137, 1987)
Format: biochemical, human immunodeficiency virus (HIV-1)
From the text: The utility of the diaromatic substituted piperazines (III), the anti-AIDS piperazines (IV) and the indoles (V) of this invention can be determined by their ability to inhibit viral reverse transcriptase, an enzyme essential for human immunodeficiency virus replication. This enzyme has characteristics which differentiate it from other known cellular polymerases and it is a unique enzyme which is not found in uninfected cells. Viral reverse transcriptase is found in extracts from bacterial clones prepared according to the procedure described in AIDS Virus Reverse Transcriptase defined by high level expression in Escherichia coli, EMBO J. 6:3133-3137 (1987). Inhibition of this enzyme is determined in a cell free assay which measures the level of radioactive precursors incorporated into DNA. Extracts prepared according to the procedure of Science, 1125-1129 (1981) are incubated in a mixture of inhibitor, 20 mM dithiothreitol, 60 mM sodium chloride, 0.05% NP-40, 10 mM magnesium chloride, 50 mM Tris pH 8.3, 10 μM [^35 S]-labeled deoxynuleoside-5'-triphosphate, 10 μg/ml RNA template (poly rC or poly rG) and 5 μg/ml DNA primer (oligo dG or oligo dT) for 30 minutes at 37° C. Incorporation of radio-labeled percursor is determined by spotting aliquots of the reaction mixture on DE81 paper, washing the papers to remove unincorporated percursor, drying and determining counts. The results (IC50 means the concentration, in μM of drug, required to inhibit the reverse transcriptase activity to the extent of 50%) of various assay(s) are combined and reported as % inhibition and IC50 (calculated).
^1 Viral reverse transcriptase is found in extracts from bacterial
clones prepared according to the procedure described by Larder, B.,
Purifoy D., Powell, K. and Darby, G., AIDS virus reverse transcriptase
defined by high level expression in Escherichia coli., EMBO J. 6,
3133-3137 (1987). Inhibition of this enzyme is determined in a cell free
assay which measures the level of radioactive precursors incorporated int
DNA. Extracts prepared according to the procedure of Kleid, D. G., et
al., Science, 1125-1129 (1981) are incubated in a mixture of inhibitor, 2
mM dithiothreitol, 60 mM sodium chloride, 0.05% NP40, 10 mM magnesium
chloride, 50 mM Tris pH 8.3, 10 μM [^35 Slabeled
deoxynucleoside5triphosphate, 10 μg/ml RNA template (poly rC or poly
rG) and 5 μg/ml DNA primer (oligo dG or oligo dT) for 15 minutes at
37°. Incorporation of radio labeled precursor is determined by
harvesting the trichloroacetic acid precipitated reaction mixtures on
glass fiber filters, drying, and determining counts. The results of
various assays are combined and reported as % inhibition at a 100 μM

For `CC(C)Nc1cccnc1N1CCN(C(=O)c2cc3cc(OCC(=O)O)ccc3[nH]2)CC1` [Example 68, 1-[5-(Carboxymethoxy)indolyl-2-carbonyl]-4-[3-(1-methylethylamino)-2-pyridinyl]piperazine], the “RT % INHIBITION (100 μM)” value was 78-95%.

Same assay, conditions: read-out: RT % INHIBITION (100 μM), 100 μM; poly rC or poly rG template

`CCNc1cccnc1N1CCN(C(=O)c2cc3cc(OCc4ccccc4)ccc3[nH]2)CC1` [Example 35, 1-[5-Benzyloxyindolyl-2-carbonyl]-4-[3-(ethylamino)-2-pyridinyl]piperazine] and `CC(C)Nc1cccnc1N1CCN(C(=O)c2cc3cc(OCC(=O)OCc4ccccc4)ccc3[nH]2)CC1` [Example 67, 1-[5-(Benzyloxycarbonylmethoxy)indolyl-2-carbonyl]-4-[3-(1-methylethylamino)-2-pyridinyl]piperazine] cannot be ordered by inhibition at 100 µM: 57 to 70% for the first, 60 to 84% for the second.

First: CC(C)(C)Nc1nccnc1N1CCN(C(=O)c2cc3cc(F)ccc3[nH]2)CC1 [Example 51, 1-[5-Fluoroindolyl-2-carbonyl]-4-[3-(1,1-dimethylethylamino)-2-pyrazinyl]piperazine]
Second: CC(C)(C)Nc1ccnnc1N1CCN(C(=O)c2cc3cc(O)ccc3[nH]2)CC1 [Example 120, 1-[5-Hydroxyindolyl-2-carbonyl]-4-[4-(1,1-dimethylethylamino)-2-pyridazinyl]piperazine]
The inhibition at 100 µM of the first is lower: 55% for the first, 87 to 90% for the second.

Compared with `O=C(c1cc2ccccc2[nH]1)N1CCN(c2nccnc2NC2CC2)CC1` [Example 57, 1-(Indolyl-2-carbonyl)-4-(3-cyclopropylamino-2-pyrazinyl)piperazine], `O=C(c1cc2ccccc2[nH]1)N1CCN(c2ncccc2NCCF)CC1` [Example 117, 1-[Indolyl-2-carbonyl]-4-[3(2-fluoroethylamino)-2-pyridinyl]piperazine] is higher in inhibition at 100 µM: 52 to 65% for the first, 92% for the second.

First: CC(C)Nc1cccnc1OCCOC(=O)c1cc2ccccc2[nH]1 [Example 59, 2-(2-(Indolyl-2-carboxy)ethoxy)-3-(1-methylethylamino)pyridine]
Second: CCNc1cccnc1N(C)CCCN(C)C(=O)c1cc2ccccc2[nH]1 [Example 111]
The inhibition at 100 µM of the first is lower: 61 to 75% for the first, 86 to 92% for the second.

Compared with `COc1c(C)cc(C(=O)N2CCN(c3ncccc3NC(C)C)CC2)cc1C` [Example 78, 1-[3,5-Dimethyl-4-methoxybenzoyl]-4-[3-(1-methylethylamino)-2-pyridinyl]piperazine], `CC(C)Nc1cccnc1N1CCN(C(=O)c2cc3cc(Br)ccc3[nH]2)CC1` [Example 93, 1-[5-Bromoindolyl-2-carbonyl]-4-[3-(1-methylethylamino)-2-pyridinyl]piperazine] is higher in inhibition at 100 µM: 74% for the first, 87% for the second.

First: CCNc1cccnc1N1CCN(Cc2cc3cc(OC)ccc3[nH]2)CC1 [Example 80]
Second: CCC(CC)Nc1cccnc1N1CCN(C(=O)c2cc3ccccc3[nH]2)CC1 [Example 100]
The inhibition at 100 µM of the first is lower: 61 to 70% for the first, 81 to 82% for the second.

`COc1ccc2[nH]c(C(=O)N(C)CCN(C)c3ncccc3NC(C)C)cc2c1` [Example 107, N,N'-Dimethyl-N-(5-methoxyindolyl-2-carbonyl)-N'-[3-(1-methylethylamino)-2-pyridyl]ethylenediamine] and `CC(C)Nc1cccnc1N(C)CCN(C)C(=O)c1cc2cc(F)ccc2[nH]1` [Example 108, N,N'-Dimethyl-N-(5-fluoroindolyl-2-carbonyl)-N'-(3-(1-methylethylamino)-2-pyridyl)ethylenediamine] cannot be ordered by inhibition at 100 µM: 77 to 87% for the first, 77 to 89% for the second.

First: CC(C)Nc1cccnc1N1CCN(C(=O)c2cc3cccnc3[nH]2)CC1 [Example 109]
Second: CC(C)Nc1cccnc1N1CCN(C(=O)c2cc3ccc(C=O)cc3[nH]2)CC1 [Example 113]
The inhibition at 100 µM of the first is lower: 56 to 82% for the first, 92 to 96% for the second.

Compared with `CCNc1cccnc1N(C)CCCCCCN(C)C(=O)c1cc2ccccc2[nH]1` [Example 112], `CC(C)(C)Nc1ccnnc1N1CCN(C(=O)c2cc3cc(OCc4ccccc4)ccc3[nH]2)CC1` [Example 119, 1-[5-Benzyloxyindolyl-2-carbonyl]-4-[4-(1,1-dimethylethylamino)-2-pyridazinyl]piperazine] is lower in inhibition at 100 µM: 74 to 82% for the first, 53 to 58% for the second.
